Assay results: patent US10111846B2, “S isomers of alpha-methyl-hydrocinnamic acid for the treatment of blood disorders” (priority 2009, dated 2018)
Several values for one entry are separate records, joined by “and”; a condition that tells them apart may be missing. Equal values may be shown once.

Legend:
[1] = Solubility in phosphate buffer containing 20% cyclodextrin; type: physicochemical; conditions: for Final pH (upon addition of drug): 250 mg/mL
Method: Phosphate buffer solutions at a target pH of 7 were prepared at buffer concentrations of 0.5M, 0.25M, and ˜0.1M, respectively. The buffer solutions contained 20% cyclodextrin.

[2] = pH solubility profile; type: physicochemical
Method: Sodium a-methyl hydrocinnamate was added to DI water in excess to determine the saturation solubility in water. The samples (n=3) were shaken and vortexed for about two hours to dissolve sodium a-methyl hydrocinnamate. […] The pH of the saturated solution was determined to be about 10.4.
The pH of the saturated aqueous solution was successively adjusted to pH values of 8, 7, 6, and 5 using 50% v/v phosphoric acid to determine the saturation solubility of each pH. To determine the saturation solubility at each pH, the aqueous layer obtained at each pH was diluted further in water and analyzed by UV. The pH solubility data and plot are presented in Table 1 and FIG. 13A, respectively.

[3] = Solubility in citrate buffer containing 30% cyclodextrin; type: physicochemical
Method: Solubility of sodium a-methyl hydrocinnamate and buffer capacity of pH 5 citrate buffers prepared at four different buffer concentrations were evaluated as presented in Table 3.

[4] = test system: sub-lethally irradiated mouse model; assay: Sub-lethally irradiated (6 Gy) mouse model, ANC; type: in vivo, mice; conditions: 500 mg/kg IP and 300 mg/kg IP after 6 Gy irradiation on day 0
Method: FIG. 9 is a graph of absolute neutrophil count (ANC) response to NaST7 (500 mg/kg IP and 300 mg/kg IP) after sub-lethal does of irradiation where mice were exposed to 6 Gy irradiation on day 0 and daily ST7 (enantiomer) was administered at two doses, beginning day 1.
In particular, absolute neutrophil count (ANC) increased after administration of NaST7 (500 mg/kg IP and 300 mg/kg IP) after sub-lethal does of irradiation (e.g., exposure to 6 Gy irradiation on day 0).

[5] = pH stability profile; type: physicochemical; conditions: for Assay, initial: unit assumed; for Assay, 1 Week 60° C. / Assay, 1 Week RT: in % (unit assumed)
Method: The pH stability profile was determined at pH values of 2, 5, 6, 7, 8, 9, and 13 respectively. A pH 7 phosphate buffer at a buffer concentration of 100 mM was initially prepared. Six different aliquots of this buffer were successively adjusted to pH values of 2, […], 6, 8, 9, and 13 using either 50% v/v phosphoric acid or 1N sodium hydroxide solution. Transferred 0.2 mL of sodium α-methyl hydrocinnamate stock solution and 1 mL of alcohol into a 10.0 mL volumetric flask was made up the volume with each of the seven buffer solutions to yield a final concentration of ˜4 mg/ml of sodium α-methyl hydrocinnamate.
Diluted 0.5 ml of each solution to 5 mL with diluent and analysed by HLPC per AM-013-RO to determine the initial concentration of sodium α-methyl hydrocinnamate. The solution was divided into two parts, one part was kept at room temperature (RT) and the other part was kept at 60° C. to evaluate the stability of sodium α-methyl hydrocinnamate.

[6] = Solubility in pH 4.7 acetate buffer; type: physicochemical; conditions: pH 4.7 acetate buffer (per USP), about 100 mg/mL
Method: The sodium α-methyl hydrocinnamate was added to pH 4.7 acetate buffer (per USP) at a concentration of about 100 mg/mL.

[7] = pH solubility profile; type: physicochemical; conditions: 200 mg/mL
[8] = buffer pH 4*, pH 5* on addition of drug

What does the source list for `CC(Cc1ccccc1)C(=O)[O-].[Na+]` (stereo not drawn) [sodium α-methyl hydrocinnamate]?
solubility in phosphate buffer solutions ([1]; 0.5M, 0.25M, ~0.1M, 20% cyclodextrin, target formulation concentration): observed to dissolve at the target formulation concentration; Final pH (upon addition of drug) ([1]; phosphate buffer 0.25 M, 20% Captisol, initial pH 6.3): 7.0; Final pH (upon addition of drug) ([1]; phosphate buffer 0.25 M, 20% Trappsol, initial pH 6.3): 6.8; Final pH (upon addition of drug) ([1]; phosphate buffer 0.5 M, 20% Captisol, initial pH 6.2): 6.8; Final pH (upon addition of drug) ([1]; phosphate buffer 0.5 M, 20% Trappsol, initial pH 6.3): 6.7; Final pH (upon addition of drug) ([1]; phosphate buffer ~0.1 M, 20% Captisol, initial pH 6.8): 7.9; Final pH (upon addition of drug) ([1]; phosphate buffer ~0.1 M, 20% Trappsol, initial pH 6.8): 7.6; saturation solubility in water ([2]; DI water, n=3): 655 mg/mL; Solubility, mg/mL, Average ([2]; pH (average) 5): 2.2 mg/mL; Solubility, mg/mL, Average ([2]; pH (average) 6): 2.8 mg/mL; Solubility, mg/mL, samples 1, 2, 3 ([2]; pH (average) 6): 2.7 mg/mL and 3.6 mg/mL and 2.2 mg/mL; Appearance ([2]; pH (average) 7): Turbid solution; Solubility, mg/mL, Average ([2]; pH (average) 7): 559.0 mg/mL; Solubility, mg/mL, samples 1, 2, 3 ([2]; pH (average) 7): 653.5 mg/mL and 579.7 mg/mL and 443.8 mg/mL; Appearance ([2]; pH (average) 8): Clear solution; Solubility, mg/mL, Average ([2]; pH (average) 8): 653.3 mg/mL; Solubility, mg/mL, samples 1, 2, 3 ([2]; pH (average) 8): 660.8 mg/mL and 663.6 mg/mL and 635.7 mg/mL; Appearance ([2]; pH (average) 10): Clear solution; Solubility, mg/mL, Average ([2]; pH (average) 10): 655.1 mg/mL; Solubility, mg/mL, samples 1, 2, 3 ([2]; pH (average) 10): 631.7 mg/mL and 700.4 mg/mL and 633.3 mg/mL; solubility in aqueous solution ([2]; pH values of 7 and below): almost insoluble; pH of the saturated solution ([2]; water): about 10.4; change of pH of buffer solution upon addition of target concentration ([3]; 0.25M and 0.1M citrate buffer, 30% Trappsol): 1.5-2 units; solubility in citrate buffers of high concentrations ([3]; 0.5M and 1 M): not soluble; Solubility (appearance) ([3]; citrate buffer 0.1 M, 30% Captisol, initial pH 4.9, 100 mg/ml): Clear; Solubility (appearance) ([3]; citrate buffer 0.1 M, 30% Captisol, initial pH 4.9, 250 mg/ml): Clear; pH ([3]; citrate buffer 0.1 M, 30% Captisol, initial pH 4.9, after addition of drug): 7.3; Solubility (appearance) ([3]; citrate buffer 0.1 M, 30% Trappsol, initial pH 5.1, 100 mg/ml): Clear; Solubility (appearance) ([3]; citrate buffer 0.1 M, 30% Trappsol, initial pH 5.1, 250 mg/ml): Clear; pH ([3]; citrate buffer 0.1 M, 30% Trappsol, initial pH 5.1, after addition of drug): 7.0; Solubility (appearance) ([3]; citrate buffer 0.25 M, 30% Trappsol, initial pH 5.1, 100 mg/ml): Clear; Solubility (appearance) ([3]; citrate buffer 0.25 M, 30% Trappsol, initial pH 5.1, 250 mg/ml): Clear; pH ([3]; citrate buffer 0.25 M, 30% Trappsol, initial pH 5.1, after addition of drug): 6.5; Solubility (appearance) ([3]; citrate buffer 1.0, 0.5, 0.25 M, 30% Captisol, initial pH 4.9, 100 mg/ml): Insoluble; Solubility (appearance) ([3]; citrate buffer 1.0, 0.5 M, 30% Trappsol, initial pH 5.1, 100 mg/ml): Insoluble; absolute neutrophil count (ANC) [4]: increased; pH, 1 Week 60° C. ([5]; buffer pH 2): 1.9; pH, 1 Week RT ([5]; buffer pH 2): 2.2; Assay, initial ([5]; buffer pH 2, ~4 mg/ml): 95.8%; Assay, 1 Week 60° C. ([5]; buffer pH 2): 81.2; Assay, 1 Week RT ([5]; buffer pH 2): 99.8; pH, 1 Week 60° C. [5, 8]: 5.1; pH, 1 Week RT [5, 8]: 5.3; Assay, 1 Week 60° C. [5, 8]: 102.3; Assay, 1 Week RT [5, 8]: 102.9; Assay, initial [5, 8]: 98.8%; pH, 1 Week 60° C. ([5]; buffer pH 6): 6.0; pH, 1 Week RT ([5]; buffer pH 6): 6.3; Assay, 1 Week 60° C. ([5]; buffer pH 6): 102.9; Assay, 1 Week RT ([5]; buffer pH 6): 102.9; Assay, initial ([5]; buffer pH 6): 97.2%; pH, 1 Week 60° C. ([5]; buffer pH 7): 6.9; pH, 1 Week RT ([5]; buffer pH 7): 7.2; Assay, 1 Week 60° C. ([5]; buffer pH 7): 99.6; Assay, 1 Week RT ([5]; buffer pH 7): 100.7; Assay, initial ([5]; buffer pH 7): 94%; pH, 1 Week 60° C. ([5]; buffer pH 8): 8.1; pH, 1 Week RT ([5]; buffer pH 8): 8.3; Assay, 1 Week 60° C. ([5]; buffer pH 8): 100.8; Assay, 1 Week RT ([5]; buffer pH 8): 100.4; Assay, initial ([5]; buffer pH 8): 97.9%; pH, 1 Week 60° C. ([5]; buffer pH 9): 9.0; pH, 1 Week RT ([5]; buffer pH 9): 9.2; Assay, 1 Week 60° C. ([5]; buffer pH 9): 101.6; Assay, 1 Week RT ([5]; buffer pH 9): 102.2; Assay, initial ([5]; buffer pH 9): 98.8%; pH, 1 Week 60° C. ([5]; buffer pH 13): 12.7; pH, 1 Week RT ([5]; buffer pH 13): 12.8; Assay, 1 Week 60° C. ([5]; buffer pH 13): 12.9; Assay, 1 Week RT ([5]; buffer pH 13): 11.2; Assay, initial ([5]; buffer pH 13): 23.2%; degradation ([5]; pH 2 solution stored for 1 week at 60° C.): About 20%; degradation ([5]; pH 13, initially): About 80%; degradation ([5]; pH 13, storage for 1 week at both room temperature and 60° C.): 90%; time stable ([5]; pH range of 2-9 at room temperature): at least 1 week; stability ([5]; pH range of 5 to 9 when stored at 60° C.): stable for at least one week; behaviour in acetate buffer [6]: observed to separate from the aqueous layer; pH of aqueous solution [7]: about 10
